Laboratory results as given in US20250197408A1, “CRYSTALLINE FORMS AND SALTS OF A PI3K INHIBITOR AND METHODS OF MAKING AND METHODS OF USE THEREOF” (Totus Medicines Inc., priority 2022, published 2025).

Tests used:
NCI-H2122 (Lung) = assay: Cell proliferation assay (CellTiter-Glo, 3 days treatment), NCI-H2122; assay type: cell-based; conditions: read-out: Absolute IC50
Description: (§1) The cell lines tested included as follows: UM-UC-3 (bladder), KYSE-410 (HN/Esophagus), SW1463 (rectum), Calu-1 (Lung), NCI-H358 (Lung), SW837 (Rectum), SW756 (Cervix), NCI-H2122 (Lung), NCI-H1373 (Lung), NCI-H1792 (Lung), NCI-H23 (Lung), MIA PaCa-2 (Pancreas), and HC44.
(§2) Cells were recovered and maintained in appropriate culture media. The cells were harvested respectively during the logarithmic growth period. The cells were then resuspended and counted using a Vi cell counter (The cell viability be measured by trypan blue exclusion assay.). The cells were then diluted and 90 μL cell suspensions were used in 96-well plates according to plate map with final cell density. Two duplicate plates were set up. One is for day 0 reading (TO) and the other was cultured in incubator for reading at the end point. The incubated plates were incubated overnight in humidified incubator at 37° C. with 5% CO2.
(§3) At day 0, 10 μL culture medium to each well for TO reading. 10 μL of culture medium was added to each well for TO reading. Then, 50 μl CellTiter-Glo® Reagent was added to each well. […] Luminescence was then recorded using an EnVision Multi Label Reader. […]
(§4) For the endpoint CTG reading, 50 μL of CellTiter-Glo® Reagent were added to each well. […] Luminescence was then recorded using an EnVision Multi Label Reader. IC50's were determined for each cell line.

SW837 (Rectum) = assay: Cell proliferation assay (CellTiter-Glo, 3 days treatment), SW837; assay type: cell-based; conditions: read-out: Absolute IC50
Description: as §1, §2, §3, §4

SW1463 (rectum) = assay: Cell proliferation assay (CellTiter-Glo, 3 days treatment), SW1463; assay type: cell-based; conditions: read-out: Absolute IC50
Description: as §1, §2, §3, §4

NCI-H1373 (Lung) = assay: Cell proliferation assay (CellTiter-Glo, 3 days treatment), NCI-H1373; assay type: cell-based; conditions: read-out: Absolute IC50
Description: as §1, §2, §3, §4

HC44 = assay: Cell proliferation assay (CellTiter-Glo, 3 days treatment), HC44; assay type: cell-based; conditions: HCC44 (Lung), read-out: Absolute IC50
Description: as §1, §2, §3, §4

NCI-H358 (Lung) = assay: Cell proliferation assay (CellTiter-Glo, 3 days treatment), NCI-H358; assay type: cell-based; conditions: NCI-H358 (Lung), 3 days treatment; read-out: Absolute IC50
Description: as §1, §2
At day 0, 10 μL culture medium to each well for TO reading. Then, 50 μl CellTiter-Glo® Reagent was added to each well. The contents were then mixed for 2 minutes on an orbital shaker to facilitate cell lysis. The plates were then allowed to incubate at room temperature for 10 minutes to stabilize luminescent signal. Luminescence was then recorded using an EnVision Multi Label Reader. The test compound Compound I, and a control cisplatin, where then diluted at various concentrations from a 10 mM stock solution. Compound I was diluted and 10 μL of each 10× compound I from working solutions for a concentration ranging from 10 μM to about 0.005 μM. Cisplatin was diluted to about […] to about 150 nM. The screening plates were then placed back into the incubator for the appropriate treatment time (3 days).
For the endpoint CTG reading, 50 μL of CellTiter-Glo® Reagent were added to each well. The contents were then mixed for 2 minutes on an orbital shaker to facilitate cell lysis. […] Luminescence was then recorded using an EnVision Multi Label Reader. IC50's were determined for each cell line.

NCI-H23 (Lung) = assay: Cell proliferation assay (CellTiter-Glo, 3 days treatment), NCI-H23; assay type: cell-based; conditions: read-out: Absolute IC50
Description: as §1, §2, §3, §4

Calu-1 (Lung) = assay: Cell proliferation assay (CellTiter-Glo, 3 days treatment), Calu-1; assay type: cell-based; conditions: read-out: Absolute IC50
Description: as §1, §2, §3, §4

MIA PaCa-2 (Pancreas) = assay: Cell proliferation assay (CellTiter-Glo, 3 days treatment), MIA PaCa-2; assay type: cell-based; conditions: read-out: Absolute IC50
Description: as §1, §2, §3, §4

UM-UC-3 (bladder) = assay: Cell proliferation assay (CellTiter-Glo, 3 days treatment), UM-UC-3; assay type: cell-based; conditions: read-out: Absolute IC50
Description: as §1, §2, §3, §4

KYSE-410 (HN/Esophagus) = assay: Cell proliferation assay (CellTiter-Glo, 3 days treatment), KYSE-410; assay type: cell-based; conditions: read-out: Absolute IC50
Description: as §1, §2, §3, §4

SW756 (Cervix) = assay: Cell proliferation assay (CellTiter-Glo, 3 days treatment), SW756; assay type: cell-based; conditions: read-out: Absolute IC50
Description: as §1, §2, §3, §4

NCI-H1792 (Lung) = assay: Cell proliferation assay (CellTiter-Glo, 3 days treatment), NCI-H1792; assay type: cell-based; conditions: read-out: Absolute IC50
Description: as §1, §2, §3, §4

[1] = Variable humidity XRPD (VH-XRPD) experiments at 25° C.; assay type: physicochemical; conditions: VH-XRPD and DVS isotherms
Method: Variable humidity XRPD (VH-XRPD) experiments.
XRPD analysis was carried out in each specific relative humidity at 25° C. Step: 40% RH (initial)-60% RH (4 h)-80% RH (4 h)-40% RH (4 h)-20% RH (4 h)-0% RH (4 h)-40% RH (4 h).

[2] = Dynamic vapor sorption (DVS) analysis at 25° C.; assay type: physicochemical
Method: In one embodiment, the crystalline forms are characterized by Dynamic Vapor Sorption (DVS). The DVS profile is typically expressed by a diagram plotting the sample relative humidity (RH) versus the change in mass (%). The DVS profile provides information on hygroscopicity of the crystalline form at different RH conditions.
A DVS (dynamic vapor sorption) analysis at 25° C. was carried out on Form A** of Compound I benzenesulfonate salt as shown in FIG. 3D.

[3] = Solubility in 7 aqueous pH buffers and bio-relevant fluids at 37° C. (HPLC of supernatant; residual solids by XRPD); assay type: physicochemical
Method: 20 mg of the free base Form A of Compound I was weighed into a 20 mL glass vial. Amounts of the salts equivalent to 20 mg anhydrous free base were weighed into a glass vial. 10 mL of solubility medium was added. The resulting suspensions/solutions were stirred at 37° C. at 400 rpm and sampled at 2 hours and at 24 hours, respectively. The samples were centrifuged at 37° C. at 14,000 rpm for 5 min. Supernatants were analyzed by HPLC and pH meter for solubility and pH value, respectively. Residual solids (wet cakes) from the 24 hours samples were also characterized by XRPD to determine physical form.
Residual solids after the solubility test were analyzed by XRPD.

[4] = ES1, pH 1.2 HCl solution (0.1N), 37° C.
[5] = ES2, pH 4.5 acetate buffer (50 mM), 37° C.
[6] = ES3, pH 6.8 phosphate buffer (50 mM), 37° C.
[7] = ES4, pH 7.4 phosphate buffer (50 mM), 37° C.

N.N.[Cl][Pt][Cl] [cisplatin, reference compound]
IC50 (NCI-H2122 (Lung)): 17.8 µM | IC50 (SW837 (Rectum)): 42.5 µM | IC50 (SW1463 (rectum)): 12.2 µM | IC50 (NCI-H1373 (Lung)): 8.72 µM | IC50 (HC44): 7.96 µM | IC50 (NCI-H358 (Lung)): 12.5 µM | IC50 (NCI-H23 (Lung)): 3.58 µM | IC50 (Calu-1 (Lung)): 10.2 µM | IC50 (MIA PaCa-2 (Pancreas)): 7.03 µM | IC50 (UM-UC-3 (bladder)): 1.86 µM | IC50 (KYSE-410 (HN/Esophagus)): 15.8 µM | IC50 (SW756 (Cervix)): 10.3 µM | IC50 (NCI-H1792 (Lung)): 4.88 µM

C=CC(=O)NCC(=O)N1CCN(Cc2cc3c(N4CCOCC4)nc(-c4cnc(NC(=O)OC)cc4C(F)(F)F)nn3c2)CC1.O=P(O)(O)O [Form A* of Compound I phosphate salt, Methyl (5-(6-((4-(acryloylglycyl)piperazin-1-yl)methyl)-4-morpholinopyrrolo[2,1-f][1,2,4]triazin-2-yl)-4-(trifluoromethyl)pyridin-2-yl) carbamate phosphate salt]
relative humidity at which the form dehydrates and converts to anhydrate Form B of Compound I phosphate salt [1]: < 20 % RH | hygroscopicity / water sorption behavior (DVS) [2]: slightly hygroscopic in <90% RH. Then it becomes hygroscopic | relative humidity in which it converts to hydrate form (DVS) [2]: > 30 % RH | relative humidity in which the form dehydrates (DVS) [2]: < 30 % RH | solid form of the sample after the DVS test [2]: still the Form A* of Compound I phosphate salt | water uptake (DVS) ([2]; from 40% to 95% RH): 3.3% | solubility compared among forms ([3]; 37° C., 2 h and 24 h, 7 aqueous pH buffers and bio-relevant fluids): highest solubility | Solubility for 2 h [3, 4]: 1200 µg/mL | pH of supernatant, solubility for 2 h (pH) [3, 4]: (1.2) | Solubility for 24 h [3, 4]: 1000 µg/mL | pH of supernatant, solubility for 24 h (pH) [3, 4]: (1.0) | Solubility for 2 h [3, 5]: >2000 µg/mL | pH of supernatant, solubility for 2 h (pH) [3, 5]: (4.4) | Solubility for 24 h [3, 5]: >2000 µg/mL | pH of supernatant, solubility for 24 h (pH) [3, 5]: (4.4) | Solubility for 2 h [3, 6]: 8.8 µg/mL | pH of supernatant, solubility for 2 h (pH) [3, 6]: (6.6) | Solubility for 24 h [3, 6]: 6.4 µg/mL | pH of supernatant, solubility for 24 h (pH) [3, 6]: (6.5) | Solubility for 2 h [3, 7]: 6.1 µg/mL | pH of supernatant, solubility for 2 h (pH) [3, 7]: (7.2) | Solubility for 24 h [3, 7]: 4.1 µg/mL | pH of supernatant, solubility for 24 h (pH) [3, 7]: (7.1) | Solubility for 2 h ([3]; ES5, SGF, pH 2.0, 37° C.): >2000 µg/mL | pH of supernatant, solubility for 2 h (pH) ([3]; ES5, SGF, pH 2.0, 37° C.): (1.9) | Solubility for 24 h ([3]; ES5, SGF, pH 2.0, 37° C.): >2000 µg/mL | pH of supernatant, solubility for 24 h (pH) ([3]; ES5, SGF, pH 2.0, 37° C.): (1.8) | Solubility for 2 h ([3]; ES6, FaSSIF-v1, pH 6.5, 37° C.): 26.8 µg/mL | pH of supernatant, solubility for 2 h (pH) ([3]; ES6, FaSSIF-v1, pH 6.5, 37° C.): (6.2) | Solubility for 24 h ([3]; ES6, FaSSIF-v1, pH 6.5, 37° C.): 21.1 µg/mL | pH of supernatant, solubility for 24 h (pH) ([3]; ES6, FaSSIF-v1, pH 6.5, 37° C.): (6.1) | Solubility for 2 h ([3]; ES7, FeSSIF-v1, pH 5.0, 37° C.): 1600 µg/mL | pH of supernatant, solubility for 2 h (pH) ([3]; ES7, FeSSIF-v1, pH 5.0, 37° C.): (5.0) | Solubility for 24 h ([3]; ES7, FeSSIF-v1, pH 5.0, 37° C.): 1700 µg/mL | pH of supernatant, solubility for 24 h (pH) ([3]; ES7, FeSSIF-v1, pH 5.0, 37° C.): (4.9) | maintenance of supersaturation ([3]; pH 4.5 buffer, 37° C.): can be maintained for a longer time than the crystalline Form B* of Compound I maleate salt
